# Tested on: genotype 1/2 chimeric cell culture derived HCV (HCVcc)
# Assay: Genotype 1/2 chimeric HCVcc assay (nano-luciferase, HCV replication)
# Format: cell-based
# Settings: Anti-HCVcc genotype 1/2 activity; Huh-7.5 cells, 72 h post infection, nano-luciferase
# Method: Naïve Huh-7.5 target cells were plated at 2400 cells/well in 25 μL of culture media in 384-well plates (Greiner bio-one, μ clear black). After overnight incubation, compounds serially diluted in 10 μL of cell culture media were added. After 2 h compound treatment, cells were inoculated with 40 μL of genotype 1/2 chimeric cell culture derived HCV (HCVcc) which express structural proteins of an HCV genotype 1a isolate (TN accession number EF621489) and non-structural proteins of HCV genotype 2a (JFH-1) with nano-luciferase reporter. At 72 h post infection, nano-luciferase activity (Nano-Glo™, Promega) and cellular ATP (Cell titer-Glo™, Promega) were measured as a marker for HCV replication and cytotoxicity, respectively. EC50 and CC50 were calculated by non-linear regression analyzing using GraphPad Prism (GraphPad Software).
row,SMILES,EC50 [nM]
1,CCOC(=O)c1c(NC(=O)NCc2c(C(F)(F)F)sc3c2CCN(C(=O)[C@H](C)N)C3)sc2c1CCCC2 [Compound 328],< 100

# Same assay, conditions: Hepatitis C virus
row,SMILES,EC50 [nM]
1,O=C(NCCCN1CCC(N2CCCCC2)CC1)c1ccc(C2CCCCC2)cc1 [Compound 1003],100 to 1000
2,O=C(NCCCN1CCC(N2CCCCC2)CC1)c1ccc(-c2ccc(C(F)(F)F)s2)cc1 [Compound 1137],100 to 1000
3,O=C(NCCCN1CCC(NC2CCCCC2)CC1)c1ccc(Oc2ccccc2)cc1 [Compound 1079],100 to 1000
4,O=C(NCCCN1CCC(N2CCCCC2)CC1)c1ccc(-c2ccc(C(F)(F)F)cc2)cc1Cl [Compound 1112],100 to 1000
5,O=C(NCCCN1CCC(N2CCCCC2)CC1)c1ccc(-c2cccc(N3CCOCC3)c2)cc1 [Compound 1142],1000 to 10000
6,O=C(c1ccc(C2CCCCC2)cc1)N1CCC(N2CCCCC2)CC1 [Compound 1007],1000 to 10000
7,O=C(NCCCN1CCC(N2CCCCC2)CC1)c1ccc(-c2ccccc2Cl)cc1 [Compound 1146],100 to 1000
8,O=C(NCCCN1CCC(N2CCCCC2)CC1)c1ccc(-c2ccc(N3CCOCC3)cc2)cc1 [Compound 1123],100 to 1000
9,O=C(NCCCN1CCC(N2CCCCC2)CC1)c1cccc(-c2ccccc2)c1 [Compound 1025],1000 to 10000
10,O=C(NCCCN1CCC(N2CCCCC2)CC1)c1ccc(Nc2ccccc2)cc1 [Compound 1070],1000 to 10000
11,O=C(NC1CC(N2CCC(N3CCCCC3)CC2)C1)c1ccc(Oc2ccccc2)cc1 (stereo not drawn) [Compound 1059],1000 to 10000
12,O=C(NCCCCCN1CCC(N2CCCCC2)CC1)c1ccc(Oc2ccccc2)cc1 [Compound 1087],100 to 1000
13,O=C(CCCN1CCC(N2CCCCC2)CC1)Nc1ccc(-c2ccc(C(F)(F)F)cc2)c(C(F)(F)F)c1 [Compound 1158],100 to 1000
14,c1ccc(Oc2ccc(CNCCCN3CCC(N4CCCCC4)CC3)cc2)cc1 [Compound 1046],100 to 1000
15,O=C(NCCCN1CCC(N2CCCCC2)CC1)c1ccc(OCc2ccc(F)cc2)cc1 [Compound 1043],1000 to 10000
16,O=C(NCCCN1CCC(N2CCCCC2)CC1)c1cc2ccccc2[nH]1 [Compound 1010],1000 to 10000
17,COc1cc(NC(=O)CCCN2CCC(N3CCCCC3)CC2)ccc1-c1ccc(C(F)(F)F)cc1 [Compound 1157],100 to 1000
18,O=S(=O)(NCCCN1CCC(N2CCCCC2)CC1)c1ccc(Oc2ccc(C(F)(F)F)cc2)cc1 [Compound 1094],100 to 1000
19,O=C(c1ccc(Oc2ccccc2)cc1)N1CCC(CN2CCC(N3CCCCC3)CC2)C1 (stereo not drawn) [Compound 1089],1000 to 10000
20,O=C(NCCCN1CCC(N2CCCCC2)CC1)c1ccc(-c2cccc(C(F)(F)F)c2)cc1 [Compound 1027],100 to 1000
21,O=C(NCCCN1CCC(Oc2ccccc2)CC1)c1ccc(Oc2ccccc2)cc1 [Compound 1056],1000 to 10000
22,O=C(NCCCN1CCC(N2CCCCC2)CC1)c1ccc(Oc2ccc(Br)cc2)cc1 [Compound 1034],1000 to 10000
23,O=C(NCCCN1CCC(N2CCCCC2)CC1)c1ccc(-c2ccccc2C(F)(F)F)cc1 [Compound 1028],100 to 1000
24,O=C(NCCCN1CCC(N2CCCCC2)CC1)c1ccc(-c2ccc(S(=O)(=O)N3CCOCC3)cc2)cc1 [Compound 1144],1000 to 10000

# Same assay, conditions: Hepatitis C virus, Huh7.5, 72 h
row,SMILES,EC50 [nM]
1,CC(C)(C)OC(=O)c1c(NC(=O)NCc2c(-n3cccc3)sc3c2CCN(CCC(F)(F)F)C3)sc2c1CCCC2 [Compound 241],< 100
2,CC(C)OC(=O)c1c(NC(=O)NCc2c(C(F)(F)F)sc3c2CC[N+](C)(C)C3)sc2c1CCCC2 [Compound 170],< 100
3,CCOC(=O)c1c(NC(=O)NCc2c(-n3cccc3)sc3c2CCN(CC)C3)sc(N2CCOCC2)c1C [Compound 33],100 to 1000
4,CCOC(=O)c1c(NC(=O)NCc2c(-n3cnc(C)n3)sc3c2CCNC3)sc2c1CCCC2 [Compound 87],100 to 1000
5,CCN1CCc2c(sc(-n3cccc3)c2CNC(=O)Nc2sc(C)c(C)c2C(=O)OC(C)C)C1 [Compound 195],< 100
6,C=CCCOC(=O)c1c(NC(=O)NCc2c(-n3cccc3)sc3c2CCNC3)sc2c1CCCC2 [Compound 276],< 100
7,CC(C)OC(=O)c1c(NC(=O)NCc2c(Br)sc3c2CCN(C)C3)sc2c1CCCC2 [Compound 172],< 100
8,CCOC(=O)c1c(NC(=O)NC(C)c2c(-n3cccc3)sc3c2CCN(CC)C3)sc2c1CCCC2 (stereo not drawn) [Compound 1],100 to 1000
9,CN1CCc2c(sc(-n3cccc3)c2CNC(=O)Nc2sc3c(c2C(=O)OC(C)(C)C)CCOC3)C1 [Compound 236],< 100
10,CCOC(=O)c1c(NC(=O)NCc2c(-c3ccco3)sc3c2CCNC3)sc2c1CCCC2 [Compound 338],< 100
11,CCN1CCc2c(sc(C(F)(F)F)c2CNC(=O)Nc2sc3c(c2C(=O)OC)CCCC3)C1 [Compound 178],< 100
12,Cc1ccccc1-c1sc2c(c1CNC(=O)Nc1sc3c(c1C(=O)OC(C)(C)C)CCCC3)CCNC2 [Compound 250],100 to 1000
13,CCN1CCc2c(sc(-n3cccc3)c2CNC(=O)Nc2sc3c(c2C(=O)NCCCOC)CCCC3)C1 [Compound 79],100 to 1000
14,CC(C)(C)OC(=O)c1c(NC(=O)NCc2c(-c3cccc(C#N)c3)sc3c2CCNC3)sc2c1CCCC2 [Compound 229],100 to 1000
15,CCc1c(C)sc(NC(=O)NCc2c(C(F)(F)F)sc3c2CCNC3)c1C(=O)OC(C)(C)C [Compound 268],< 100
16,CCN1CCc2c(sc(-n3cccc3)c2CNC(=O)Nc2sc3c(c2C(=O)N(C)C)CCCC3)C1 [Compound 122],100 to 1000
17,CC(C)(C)OC(=O)c1ccsc1NC(=O)NCc1c(C(F)(F)F)sc2c1CCNC2 [Compound 343],100 to 1000
18,CCOC(=O)c1c(NC(=O)NCc2ccc(CN(C)C)cc2Br)sc2c1CCCC2 [Compound 93],100 to 1000
19,CCN1CCc2c(sc(-n3cccc3)c2CNC(=O)Nc2sc3c(c2C(=O)OC(C)(C)C)CCC(C)C3)C1 (stereo not drawn) [Compound 211],< 100
20,CCOC(=O)c1c(NC(=O)NC(=O)c2c(-n3c(C)ccc3C)sc3c2CCN(CC)C3)sc2c1CCCC2 [Compound 49],1000 to 10000
21,CC(C)(C)OC(=O)c1c(NC(=O)NCc2c(-c3ccc(C(=O)O)cc3)sc3c2CCNC3)sc2c1CCCC2 [Compound 257],1000 to 10000
22,CC(C)(C)OC(=O)c1c(NC(=O)NCc2c(-c3cccc(F)c3)sc3c2CCNC3)sc2c1CCCC2 [Compound 160],< 100
23,CC(C)(C)OC(=O)c1c(NC(=O)NCc2c(-c3ccoc3)sc3c2CCNC3)sc2c1CCOC2 [Compound 331],< 100
24,CCOC(=O)c1c(NC(=O)NCc2c(-n3cccc3)sc(C(=O)N(C)C)c2C)sc2c1CCCC2 [Compound 52],100 to 1000

row,SMILES,EC50 [nM]
1,CC1Cc2c(sc(NC(=O)NCc3c(-n4cccc4)sc4c3CCN(C)C4)c2C(=O)OC(C)(C)C)C(C)C1 (stereo not drawn) [Compound 293],< 100
2,CCOC(=O)c1c(NC(=O)NCc2c(C(F)(F)F)sc3c2CCNC3)sc2ccccc12 [Compound 348],< 100
3,CCc1sc2c(c1CNC(=O)Nc1sc3c(c1C(=O)OC(C)(C)C)CCCC3)CCNC2 [Compound 181],< 100
4,COCCN1CCc2c(sc(-n3cccc3)c2CNC(=O)Nc2sc3c(c2C(=O)OC(C)(C)C)CCCC3)C1 [Compound 259],< 100
5,CC(C)(C)OC(=O)c1c(NC(=O)NCc2c(-c3ccc(C(F)(F)F)cc3)sc3c2CCNC3)sc2c1CCCC2 [Compound 146],< 100
6,CC(C)(C)OC(=O)c1c(NC(=O)NCc2c(-n3cccc3)sc3c2CCN(C(C)(C)C)C3)sc2c1CCCC2 [Compound 99],< 100
7,CCOC(=O)c1c(NC(=O)NCc2c(Br)sc3c2CCNC3)sc2c1CCOC2 [Compound 163],< 100
8,CCOC(=O)c1c(NC(=O)NCc2c(-n3cccc3)sc(CN3CCOCC3)c2C)sc2c1CCCC2 [Compound 53],< 100
9,CCOC(=O)c1c(NC(=O)NCc2c(C(F)(F)F)sc3c2CCNC3)sc2c1CCOC2 [Compound 150],< 100
10,Cc1sc(NC(=O)C(=O)NCc2c(C(F)(F)F)sc3c2CCNC3)c(C(=O)OC(C)(C)C)c1C [Compound 360],100 to 1000
11,CCOC(=O)c1c(NC(=O)NCc2csc3c2CCNC3)sc2c1CCCC2 [Compound 38],< 100
12,CCOC(=O)c1c(NC(=O)NCc2c(C(F)(F)F)sc3c2CCN(CCN(C)C)C3)sc2c1CCCC2 [Compound 316],< 100
13,CCOC(=O)c1c(NC(=O)NCc2c(Br)sc3c2CCNC3)sc2c1C(C)CCC2 (stereo not drawn) [Compound 164],< 100
14,CCOC(=O)c1c(NC(=O)NCc2c(N3CCCC3)sc3c2CCN(C(=O)OC(C)(C)C)C3)sc2c1CCCC2 [Compound 73],< 100
15,CCOC(=O)c1c(NC(=O)NCc2c(-n3cccc3)sc3c2CCNC3)sc(C)c1C [Compound 70],100 to 1000
16,CN(C)CCN1CCc2c(sc(C(F)(F)F)c2CNC(=O)Nc2sc3c(c2C(=O)OC(C)(C)C)CCCC3)C1 [Compound 355],< 100
17,CCOC(=O)c1c(NC(=O)NCc2c(-n3cccc3)sc3c2CCN(CC)C3)sc2c1CCOC2 [Compound 41],< 100
18,CCOC(=O)c1c(NC(=O)NCc2c(Br)sc3c2CCNC3)sc(C)c1C [Compound 133],< 100
19,CCOC(=O)c1c(NC(=O)NCc2c(-n3cccc3)sc3c2CCNC3)sc2c1CCCCC2 [Compound 113],100 to 1000
20,CCOC(=O)c1c(NC(=O)NCc2c(Br)sc3c2CCNC3)sc2c1CCCC2 [Compound 81],< 100
21,Cc1nnc(-c2c(NC(=O)NCc3c(Br)sc4c3CCNC4)sc(C)c2C)o1 [Compound 162],< 100
22,CCOC(=O)c1c(NC(=O)NCc2c(-n3cccc3)sc3c2CCNC3)sc2c1CCCC2 [Compound 61],< 100
23,CCOC(=O)c1c(NC(=O)NCc2c(N3C(=O)CCC3=O)sc3c2CCN(CC)C3)sc2c1CCCC2 [Compound 31],100 to 1000

# — patent US9809602B2, “Compounds for treating viral infections” (INSTITUT PASTEUR KOREA, priority 2014, dated 2017)
